# Experimental data from ChEMBL document CHEMBL3734705, “Synthesis and in vitro cytotoxicity of novel C-12 substituted-14-deoxy-andrographolide derivatives as potent anti-cancer agents” (2015).
# Key:
# [1] = Cytotoxicity against human HL-60(TB) cells assessed as growth inhibition at 10 uM after 48 hrs by SRB assay; type: functional; settings: HL-60, 48 h, read-out: GI
# [2] = Cytotoxicity against human HOP92 cells assessed as growth inhibition at 10 uM after 48 hrs by SRB assay; type: functional; settings: HOP-92, 48 h, read-out: GI
# [3] = Cytotoxicity against human HCT116 cells assessed as growth level at 10 uM after 48 hrs by SRB assay; type: functional, HCT-116
# [4] = Cytotoxicity against human UACC62 cells assessed as growth level at 10 uM after 48 hrs by SRB assay; type: functional, UACC-62
# [5] = system: SR; test: Cytotoxicity against human SR cells assessed as growth inhibition at 10 uM after 48 hrs by SRB assay; type: functional; settings: read-out: GI
# [6] = Cytotoxicity against human SW620 cells assessed as growth inhibition at 10 uM after 48 hrs by SRB assay; type: functional; settings: SW-620, 48 h, read-out: GI
# [7] = Cytotoxicity against human OVCAR4 cells assessed as growth level at 10 uM after 48 hrs by SRB assay; type: functional, OVCAR-4
# [8] = Cytotoxicity against human OVCAR8 cells assessed as growth inhibition at 10 uM after 48 hrs by SRB assay; type: functional; settings: OVCAR-8, 48 h, read-out: GI
# [9] = system: HT-29; test: Cytotoxicity against human HT-29 cells assessed as growth level at 10 uM after 48 hrs by SRB assay; type: functional
# [10] = Cytotoxicity against human Hs578T cells assessed as growth level at 10 uM after 48 hrs by SRB assay; type: functional, Hs-578T
# [11] = system: MCF7; test: Cytotoxicity against human MCF7 cells assessed as growth inhibition at 10 uM after 48 hrs by SRB assay; type: functional; settings: MCF7, 48 h, read-out: GI
# [12] = Cytotoxicity against human HOP62 cells assessed as growth level at 10 uM after 48 hrs by SRB assay; type: functional, HOP-62
# [13] = Cytotoxicity against human HCC2998 cells assessed as growth inhibition at 10 uM after 48 hrs by SRB assay; type: functional; settings: HCC 2998, 48 h, read-out: GI
# [14] = system: NCI-H23; test: Cytotoxicity against human NCI-H23 cells assessed as growth inhibition at 10 uM after 48 hrs by SRB assay; type: functional; settings: NCI-H23, 48 h, read-out: GI
# [15] = system: CCRF-CEM; test: Cytotoxicity against human CCRF-CEM cells assessed as growth level at 10 uM after 48 hrs by SRB assay; type: functional
# [16] = Cytotoxicity against human LOXIMVI cells assessed as growth level at 10 uM after 48 hrs by SRB assay; type: functional, LOX IMVI
# [17] = system: EKVX; test: Cytotoxicity against human EKVX cells assessed as growth level at 10 uM after 48 hrs by SRB assay; type: functional
# [18] = Cytotoxicity against human PC3 cells assessed as growth inhibition at 10 uM after 48 hrs by SRB assay; type: functional; settings: PC-3, 48 h, read-out: GI
# [19] = Cytotoxicity against human TK10 cells assessed as growth level at 10 uM after 48 hrs by SRB assay; type: functional, TK-10
# [20] = Cytotoxicity against human UACC62 cells assessed as growth inhibition at 10 uM after 48 hrs by SRB assay; type: functional; settings: UACC-62, 48 h, read-out: GI
# [21] = system: NCI-H226; test: Cytotoxicity against human NCI-H226 cells assessed as growth inhibition at 10 uM after 48 hrs by SRB assay; type: functional; settings: NCI-H226, 48 h, read-out: GI
# [22] = system: MDA-MB-468; test: Cytotoxicity against human MDA-MB-468 cells assessed as growth level at 10 uM after 48 hrs by SRB assay; type: functional
# [23] = system: CCRF-CEM; test: Cytotoxicity against human CCRF-CEM cells assessed as growth inhibition at 10 uM after 48 hrs by SRB assay; type: functional; settings: read-out: GI
# [24] = Cytotoxicity against human RPMI8226 cells assessed as growth inhibition at 10 uM after 48 hrs by SRB assay; type: functional; settings: RPMI-8226, 48 h, read-out: GI
# [25] = system: SK-MEL-5; test: Cytotoxicity against human SK-MEL-5 cells assessed as growth inhibition at 10 uM after 48 hrs by SRB assay; type: functional; settings: SK-MEL-5, 48 h, read-out: GI
# [26] = system: NCI-H322M; test: Cytotoxicity against human NCI-H322M cells assessed as growth inhibition at 10 uM after 48 hrs by SRB assay; type: functional; settings: read-out: GI
# [27] = system: MDA-MB-435; test: Cytotoxicity against human MDA-MB-435 cells assessed as growth level at 10 uM after 48 hrs by SRB assay; type: functional
# [28] = Cytotoxicity against human DU145 cells assessed as growth inhibition at 10 uM after 48 hrs by SRB assay; type: functional; settings: DU-145, 48 h, read-out: GI
# [29] = Cytotoxicity against human IGROV1 cells assessed as growth inhibition at 10 uM after 48 hrs by SRB assay; type: functional; settings: IGROV-1, 48 h, read-out: GI
# [30] = Cytotoxicity against human NCI-ADR-RES cells assessed as growth level at 10 uM after 48 hrs by SRB assay; type: functional
# [31] = system: Malme-3M; test: Cytotoxicity against human MALME-3M cells assessed as growth level at 10 uM after 48 hrs by SRB assay; type: functional
# [32] = system: K562; test: Cytotoxicity against human K562 cells assessed as growth inhibition at 10 uM after 48 hrs by SRB assay; type: functional; settings: K562, 48 h, read-out: GI
# [33] = Cytotoxicity against human RPMI8226 cells assessed as growth level at 10 uM after 48 hrs by SRB assay; type: functional, RPMI-8226
# [34] = system: MDA-MB-468; test: Cytotoxicity against human MDA-MB-468 cells assessed as growth inhibition at 10 uM after 48 hrs by SRB assay; type: functional; settings: MDA-MB-468, 48 h, read-out: GI
# [35] = system: MDA-MB-435; test: Cytotoxicity against human MDA-MB-435 cells assessed as growth inhibition at 10 uM after 48 hrs by SRB assay; type: functional; settings: MDA-MB-435, 48 h, read-out: GI
# [36] = Cytotoxicity against human MOLT4 cells assessed as growth level at 10 uM after 48 hrs by SRB assay; type: functional, MOLT-4
# [37] = Cytotoxicity against human SKOV3 cells assessed as growth inhibition at 10 uM after 48 hrs by SRB assay; type: functional; settings: SK-OV-3, 48 h, read-out: GI
# [38] = system: NCI-H460; test: Cytotoxicity against human NCI-H460 cells assessed as growth inhibition at 10 uM after 48 hrs by SRB assay; type: functional; settings: NCI-H460, 48 h, read-out: GI
# [39] = system: A498; test: Cytotoxicity against human A498 cells assessed as growth level at 10 uM after 48 hrs by SRB assay; type: functional
# [40] = Cytotoxicity against human HOP92 cells assessed as growth level at 10 uM after 48 hrs by SRB assay; type: functional, HOP-92
# [41] = Cytotoxicity against human SF268 cells assessed as growth level at 10 uM after 48 hrs by SRB assay; type: functional, SF-268
# [42] = Cytotoxicity against human SW620 cells assessed as growth level at 10 uM after 48 hrs by SRB assay; type: functional, SW-620
# [43] = system: ACHN; test: Cytotoxicity against human ACHN cells assessed as growth inhibition at 10 uM after 48 hrs by SRB assay; type: functional; settings: read-out: GI
structure (smiles),measurement,setting,value
C=C1CC[C@@H]2[C@](C)(COC(C)=O)[C@H](OC(C)=O)CC[C@@]2(C)[C@@H]1CC(NCCCC)C1=CCOC1=O (mixture of isomers),inhibition of growth at 10 µM,[1],6.18%
same,inhibition of growth at 10 µM,[2],46.7%
same,Activity,[3],80.22%
same,Activity,[4],72.38%
same,inhibition of growth at 10 µM,[5],51.5%
same,inhibition of growth at 10 µM,[6],4.99%
same,Activity,[7],85.7%
same,inhibition of growth at 10 µM,[8],10.4%
same,Activity,[9],82.56%
same,Activity,[10],97.68%
same,inhibition of growth at 10 µM,[11],17.1%
same,Activity,[12],93.96%
same,inhibition of growth at 10 µM,[13],7.9%
same,inhibition of growth at 10 µM,[14],10.3%
same,Activity,[15],80.69%
same,Activity,[16],90.39%
same,Activity,[17],71.43%
same,inhibition of growth at 10 µM,[18],48.8%
same,Activity,[19],99.06%
same,inhibition of growth at 10 µM,[20],27.6%
same,inhibition of growth at 10 µM,[21],24.3%
same,Activity,[22],66.18%
same,inhibition of growth at 10 µM,[23],19.3%
same,inhibition of growth at 10 µM,[24],39.5%
same,inhibition of growth at 10 µM,[25],24%
same,inhibition of growth at 10 µM,[26],3.78%
same,Activity,[27],88.61%
same,inhibition of growth at 10 µM,[28],0.82%
same,inhibition of growth at 10 µM,[29],20%
same,Activity,[30],87.27%
same,Activity,[31],97.57%
same,inhibition of growth at 10 µM,[32],30.5%
same,Activity,[33],60.49%
same,inhibition of growth at 10 µM,[34],33.8%
same,inhibition of growth at 10 µM,[35],11.4%
same,Activity,[36],55.54%
same,inhibition of growth at 10 µM,[37],7.58%
same,inhibition of growth at 10 µM,[38],8.38%
same,Activity,[39],75.44%
same,Activity,[40],53.32%
same,Activity,[41],76.97%
same,Activity,[42],95.01%
same,inhibition of growth at 10 µM,[43],0.58%
C=C1CC[C@@H]2[C@](C)(COC(C)=O)[C@H](OC(C)=O)CC[C@@]2(C)[C@@H]1CC(NCc1cccc(Cl)c1)C1=CCOC1=O (mixture of isomers),inhibition of growth at 10 µM,[1],78.4%
same,inhibition of growth at 10 µM,[2],33.7%
same,Activity,[3],35.94%
same,Activity,[4],41.2%
same,inhibition of growth at 10 µM,[5],88.5%
same,inhibition of growth at 10 µM,[6],61.7%
same,Activity,[7],50.4%
same,inhibition of growth at 10 µM,[8],57.3%
same,Activity,[9],25.54%
same,Activity,[10],94.35%
same,inhibition of growth at 10 µM,[11],57%
same,Activity,[12],56%
same,inhibition of growth at 10 µM,[13],15.4%
same,inhibition of growth at 10 µM,[14],47.3%
same,Activity,[15],42.29%
same,Activity,[16],12.71%
same,Activity,[17],77.89%
same,inhibition of growth at 10 µM,[18],69.9%
same,Activity,[19],63.29%
same,inhibition of growth at 10 µM,[20],58.8%
same,inhibition of growth at 10 µM,[21],53.7%
same,Activity,[22],25.62%
same,inhibition of growth at 10 µM,[23],57.7%
same,inhibition of growth at 10 µM,[24],72.8%
same,inhibition of growth at 10 µM,[26],24.6%
same,Activity,[27],51.65%
same,inhibition of growth at 10 µM,[28],18.1%
same,inhibition of growth at 10 µM,[29],35.9%
same,Activity,[30],60.33%
same,Activity,[31],76.11%
same,inhibition of growth at 10 µM,[32],81.5%
same,Activity,[33],27.25%
same,inhibition of growth at 10 µM,[34],74.4%
same,inhibition of growth at 10 µM,[35],48.4%
same,Activity,[36],21.89%
same,inhibition of growth at 10 µM,[37],26.9%
same,inhibition of growth at 10 µM,[38],65.2%
same,Activity,[39],64.78%
same,Activity,[40],66.34%
same,Activity,[41],53.28%
same,Activity,[42],38.27%
same,inhibition of growth at 10 µM,[43],58.4%
